Measured values taken from US7253285B2, “Thiazolinone 4-monosubstituted quinolines” (Hoffmann-La Roche Inc., priority 2004, dated 2007).
Structures can show the parent of a compound that is named as a salt.

Columns and labels:
[1] = target: T1, recombinant human CDK1/Cyclin B complex (Homo sapiens, UniProt P06493); assay: CDK1/Cyclin B kinase assay (FlashPlate or HTRF); format: biochemical; settings: Rb protein substrate, Ki=IC50/(1+[S]/Km)
T1 construct: made in house; host or cells: High Five insect cells (baculovirus) for CDK1/GST-cyclin B; E. coli M15 for the Rb substrate
T1 sequence (P06493 whole entry): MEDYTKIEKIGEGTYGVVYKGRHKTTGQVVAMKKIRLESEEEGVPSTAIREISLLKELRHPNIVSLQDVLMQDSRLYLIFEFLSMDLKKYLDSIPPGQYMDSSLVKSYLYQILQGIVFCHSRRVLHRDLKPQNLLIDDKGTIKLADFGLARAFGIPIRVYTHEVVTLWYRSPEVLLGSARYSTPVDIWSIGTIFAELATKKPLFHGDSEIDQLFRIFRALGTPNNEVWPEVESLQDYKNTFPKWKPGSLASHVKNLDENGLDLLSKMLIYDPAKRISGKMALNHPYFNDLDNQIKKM
T1 sequence (P14635 whole entry partner): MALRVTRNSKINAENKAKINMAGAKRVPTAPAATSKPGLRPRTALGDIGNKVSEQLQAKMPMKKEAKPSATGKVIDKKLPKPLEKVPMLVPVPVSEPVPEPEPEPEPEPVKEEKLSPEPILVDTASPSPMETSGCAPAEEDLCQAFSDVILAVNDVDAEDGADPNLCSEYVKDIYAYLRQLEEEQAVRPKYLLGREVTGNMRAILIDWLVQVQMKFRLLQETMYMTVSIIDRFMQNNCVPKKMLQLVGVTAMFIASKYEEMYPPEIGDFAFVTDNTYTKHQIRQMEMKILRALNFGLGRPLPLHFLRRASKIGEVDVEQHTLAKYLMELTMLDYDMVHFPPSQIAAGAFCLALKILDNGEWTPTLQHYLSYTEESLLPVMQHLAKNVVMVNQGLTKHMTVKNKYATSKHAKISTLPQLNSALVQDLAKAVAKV
Procedure: To determine inhibition of CDK1 activity, either FlashPlate™ (NEN™-Life Science Products) assay or HTRF assay was performed. Both types of kinase assays were carried out using recombinant human CDK1/Cyclin B complex. GST-cyclinB (GST-cycB) and CDK1 cDNA clones in baculovirus vectors were provided by Dr. W. Harper at the Baylor College of Medicine, Houston, Tex. Proteins were co-expressed in High Five™ insect cells and the complex was purified on glutathione Sepharose resin (Pharmacia, Piscataway, N.J.) as previously described (Harper, J. W. et al. Cell 1993, 75, 805-816). A 6×-Histidine tagged truncated form of retinoblastoma (Rb) protein (amino acid 386-928) was used as the substrate for the CDK1/Cyclin B assay (the expression plasmid was provided by Dr. Veronica Sullivan, Department of Molecular Virology, Roche Research Centre, Welwyn Garden City, United Kingdom). The Rb protein is a natural substrate for phosphorylation by CDK1 (see Herwig and Strauss Eur. J. Biochem. Vol. 246 (1997) pp. 581-601 and the references cited therein). The expression of the 62 Kd protein was under the control of an IPTG inducible promoter in an M15 E. coli strain. Cells were lysed by sonication and purification was carried out by binding lysates at pH 8.0 to a Ni-chelated agarose column pretreated with 1 mM imidazole. The resin was then washed several times with incrementally decreasing pH buffers to pH 6.0, and eluted with 500 mM imidazole. Eluted protein was dialysed against 20 mM HEPES pH 7.5, 30% glycerol, 200 mM NaCl, and 1 mM DTT. Purified Rb fusion protein stocks were quantitated for protein concentration, aliquoted, and stored at −70° C.
For the FlashPlate kinase assay, 96-well FlashPlates were coated with Rb protein at 10 μg/ml, using 100 μl per well. Plates were incubated at 4° C. overnight or at room temperature for 3 hours on a shaker. To control for nonspecific phosphorylation, one row of wells was coated with 100 μl/well coating buffer (20 mM HEPES, 0.2 M NaCl). Plates were then washed twice with wash buffer (0.01% Tween 20 in phosphate-buffered saline). Compounds to be tested (“test compounds”) were added to the wells at 5× final concentration. Reactions were initiated by immediate addition of 40 μl reaction mix (25 mM HEPES, 20 mM MgCl2, 0.002% Tween 20, 2 mM DTT, 1 μM ATP, 4 nM ^33P-ATP) and a sufficient amount of enzyme to give counts that were at least 10-fold above background. Plates were incubated at room temperature on a shaker for 30 minutes. Plates were washed four times with the wash buffer, sealed, and counted on the TopCount scintillation counter (Packard Instrument Co., Downers Grove, Ill.]. The percent inhibition of Rb phosphorylation, which is a measure of the inhibition of CDK activity, was determined according to the following formula:
[formula] where “test compound” refers to the average counts per minute of the test duplicates, “nonspecific” refers to the average counts per minute when no CDK1/Cyclin B, etc., was added, and “total” refers to the average counts per minute when no compound was added. The IC50 value is the concentration of test compound that reduces by 50% the protein-kinase induced incorporation of the radiolabel under the test conditions described. The value of the inhibitor constant Ki is calculated by the following: Ki=IC50/(1+[S]/Km), where [S] is the ATP concentration and Km is Michaelis constant.
The Homogeneous Time Resolved Fluorescence (HTRF) kinase assay was carried out in 96-well polypropylene plates (BD Biosciences, Bedford, Mass.). Test compounds were first dissolved in DMSO, and then diluted in kinase assay buffer 1 (25 mM HEPES, pH7.0, 8 mM MgCl2, 1.5 mM DTT, and 162 μM ATP) with DMSO concentration at 15%. The CDK1/Cyclin B enzyme was diluted in kinase assay buffer 2 (25 mM HEPES, pH 7.0, 8 mM MgCl2, 0.003% Tween 20, 0.045% BSA, 1.5 mM DTT, and 0.338 μM Rb protein). […]

Row | melting point [°C] | Ki [1] [nM] | Compound
1 | 258 to 262 | – | COc1ccnc2ccc(/C=C3\SC(NCc4cccs4)=NC3=O)cc12 [Example 1, 5-(4-Methoxy-quinolin-6-ylmeth-(Z)-ylidine)-2-[(thiophen-2-ylmethyl)-amino]-thiazol-4-one]
2 | 251 to 253 | – | COc1ccnc2ccc(/C=C3\SC(N[C@H]4C[C@@H]4c4ccccc4)=NC3=O)cc12 [Example 2, 5-(4-Methoxy-quinolin-6-ylmeth-(Z)-ylidine)-2-((1R,2S)-2-phenyl-cyclopropylamino)-thiazol-4-one]
3 | 226 to 228 | – | CCOc1ccnc2ccc(/C=C3\SC(NCc4cccs4)=NC3=O)cc12 [Example 4, 5-(4-Ethoxy-quinolin-6-ylmeth-(Z)-ylidine)-2-[(thiophen-2-ylmethyl)-amino]-thiazol-4-one]
4 | 266 to 268 | 39 | CCOc1ccnc2ccc(/C=C3\SC(N[C@H]4C[C@@H]4c4ccccc4)=NC3=O)cc12 [Example 5, 5-(4-Ethoxy-quinolin-6-ylmeth-(Z)-ylidine)-2-((1R,2S)-2-phenyl-cyclopropylamino)-thiazol-4-one]
5 | 223 to 227 | 1190 | O=C1N=C(N[C@H]2C[C@@H]2c2ccccc2)S/C1=C\c1ccc2nccc(OCC3CCCCC3)c2c1 [Example 10, 5-(4-Cyclohexylmethoxy-quinolin-6-ylmeth-(Z)-ylidine)-2-((1R,2S)-2-phenyl-cyclopropylamino)-thiazol-4-one]
6 | – | 210 | O=C1N=C(NCc2cccs2)S/C1=C\c1ccc2nccc(N3CCOCC3)c2c1 [Example 15, 5-(4-Morpholin-4-yl-quinolin-6-ylmeth-(Z)-ylidine)-2-[(thiophen-2-ylmethyl)-amino]-thiazol-4-one]
7 | – | 32 | COCCOc1ccnc2ccc(/C=C3\SC(N)=NC3=O)cc12 [Example 20, 2-Amino-5-[4-(2-methoxy-ethoxy)-quinolin-6-ylmeth-(Z)-ylidine]-thiazol-4-one as trifluoroacetate salt]
8 | 239 to 240.5 | – | O=C1N=C(NCc2cccs2)S/C1=C\c1ccc2nccc(Oc3ccccc3)c2c1 [Example 24, 5-(4-Phenoxy-quinolin-6-ylmeth-(Z)-ylidine)-2-[(thiophen-2-ylmethyl)-amino]-thiazol-4-one]
9 | – | 340 | NC1=NC(=O)/C(=C/c2ccc3nccc(Oc4ccccc4)c3c2)S1 [Example 25, 2-Amino-5-(4-phenoxy-quinolin-6-ylmeth-(Z)-ylidine)-thiazol-4-one]
10 | – | 281 | CCOc1ccnc2ccc(/C=C3\SC(NCc4cnc(C)cn4)=NC3=O)cc12 [Example 30, 2-[(5-Methyl-pyrazin-2-ylmethyl)-amino]-5-(4-ethoxy-quinolin-6-ylmeth-(Z)-ylidine)-thiazol-4-one]
11 | – | 37.2 | CCSc1ccnc2ccc(/C=C3\SC(N[C@H]4C[C@@H]4c4ccccc4)=NC3=O)cc12 [Example 35, 5-(4-Ethylsulfanyl-quinolin-6-ylmeth-(Z)-ylidine)-2-((1R,2S)-2-phenyl-cyclopropylamino)-thiazol-4-one]
12 | – | 13 | CCOc1ccnc2ccc(/C=C3\SC(NCCc4cccc(F)c4)=NC3=O)cc12 [Example 40]
